The results in this text go back to patent US10072001B2, “Tank-binding kinase inhibitor compounds” (Gilead Sciences, Inc., priority 2014, dated 2018).

The target of one test is IKKε (Homo sapiens (Human), UniProt Q14164). Briefly: TR-FRET kinase assay, IKKε. The conditions noted are these: full length recombinant IKKε 0.3 nM, 2x Km ATP, 1 μM peptide, 240 min at 25° C.; geometric mean of minimum four determinations. Type of test: biochemical. From the text:
Biological Assay for TBK1 and IKKs:

Another test deals with TBK1 (Homo sapiens (Human), UniProt Q9UHD2). In words: TR-FRET kinase assay, TBK1. The conditions noted are these: read-out: TBK1-IC50; full length recombinant TBK1 2.5 nM, 2x Km ATP, 1 μM peptide, 240 min at 25° C.; geometric mean of minimum four determinations.
Sequence of TBK1 (Q9UHD2 whole entry): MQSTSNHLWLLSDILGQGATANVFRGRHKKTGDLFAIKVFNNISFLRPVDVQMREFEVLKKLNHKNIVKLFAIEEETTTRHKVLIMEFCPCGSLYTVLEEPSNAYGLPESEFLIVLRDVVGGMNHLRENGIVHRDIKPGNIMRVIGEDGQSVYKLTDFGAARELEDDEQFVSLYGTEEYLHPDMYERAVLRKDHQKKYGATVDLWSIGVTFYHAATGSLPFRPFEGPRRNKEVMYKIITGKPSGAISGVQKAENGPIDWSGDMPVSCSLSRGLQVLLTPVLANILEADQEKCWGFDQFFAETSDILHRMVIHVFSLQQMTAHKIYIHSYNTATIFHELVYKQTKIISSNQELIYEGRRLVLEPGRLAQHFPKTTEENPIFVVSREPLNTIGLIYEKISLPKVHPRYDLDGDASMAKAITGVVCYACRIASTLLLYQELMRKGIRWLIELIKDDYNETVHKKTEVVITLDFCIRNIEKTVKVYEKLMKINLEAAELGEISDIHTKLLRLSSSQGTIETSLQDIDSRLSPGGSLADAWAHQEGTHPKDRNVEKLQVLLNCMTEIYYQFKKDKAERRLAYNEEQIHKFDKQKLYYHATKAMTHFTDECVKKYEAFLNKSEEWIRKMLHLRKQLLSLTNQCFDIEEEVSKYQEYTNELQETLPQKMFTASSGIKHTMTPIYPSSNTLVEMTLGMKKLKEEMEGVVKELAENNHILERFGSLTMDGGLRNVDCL

Sequence of IKKε (Q14164 whole entry): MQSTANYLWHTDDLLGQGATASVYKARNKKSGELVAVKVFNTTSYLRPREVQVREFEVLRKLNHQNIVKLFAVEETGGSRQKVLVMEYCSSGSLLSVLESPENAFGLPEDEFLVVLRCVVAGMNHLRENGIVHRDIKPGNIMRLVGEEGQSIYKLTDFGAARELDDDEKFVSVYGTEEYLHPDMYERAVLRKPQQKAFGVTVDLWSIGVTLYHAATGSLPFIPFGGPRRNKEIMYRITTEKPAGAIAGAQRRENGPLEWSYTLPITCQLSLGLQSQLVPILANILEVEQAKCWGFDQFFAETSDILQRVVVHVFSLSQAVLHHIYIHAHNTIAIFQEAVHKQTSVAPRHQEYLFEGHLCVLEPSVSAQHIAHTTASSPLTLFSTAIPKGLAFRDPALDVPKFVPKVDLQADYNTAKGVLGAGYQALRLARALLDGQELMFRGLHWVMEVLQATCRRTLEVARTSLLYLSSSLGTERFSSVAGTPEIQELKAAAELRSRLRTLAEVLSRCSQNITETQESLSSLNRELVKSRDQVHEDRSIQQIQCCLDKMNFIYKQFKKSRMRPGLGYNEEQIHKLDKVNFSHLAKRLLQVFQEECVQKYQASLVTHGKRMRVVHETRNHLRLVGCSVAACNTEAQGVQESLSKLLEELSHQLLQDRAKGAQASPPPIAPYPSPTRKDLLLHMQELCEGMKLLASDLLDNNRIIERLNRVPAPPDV

`N#Cc1cc(-c2ncnc3[nH]c(-c4cccc(Cn5ccnc5)c4)cc23)ccc1OC1CCOCC1` [Example 119, 5-(6-(3-((1H-imidazol-1-yl)methyl)phenyl)-7H-pyrrolo[2,3-d]pyrimidin-4-yl)-2-((tetrahydro-2H-pyran-4-yl)oxy)benzonitrile]: the 50% inhibitory concentration (IC50) (as a rule, the concentration that gives 50% inhibition) at IKKε turned out to be 1.22 nM; on TBK1, 1.23 nM.

Take `N#Cc1cc(-c2cc3c(-c4ccc(N5CC(O)C5)c(C#N)c4)ncnc3[nH]2)ccc1N1CC(O)C1` [Example 230, 5,5′-(7H-pyrrolo[2,3-d]pyrimidine-4,6-diyl)bis(2-(3-hydroxyazetidin-1-yl)benzonitrile)]: the IC50 at IKKε was determined as 324 nM; at TBK1 it was 13.4 nM.

As to `N#Cc1cc(-c2ncnc3[nH]c(-c4ccc(C(=O)N5CCCC5)cc4)cc23)ccc1OC1CCN(C(=O)CO)CC1` [Example 162, 2-((1-(2-Hydroxyacetyl)piperidin-4-yl)oxy)-5-(6-(4-(pyrrolidine-1-carbonyl)phenyl)-7H-pyrrolo[2,3-d]pyrimidin-4-yl)benzonitrile], the concentration for half-maximal inhibition (IC50) at IKKε came to 2.68 nM; at TBK1 it was 1.48 nM.

On to `N#CCC(=O)N1CCC(Oc2ccc(-c3ccnc4[nH]c(-c5ccc(N6CCOCC6)cc5)cc34)cc2C#N)CC1` [Example 20, 2-((1-(2-cyanoacetyl)piperidin-4-yl)oxy)-5-(2-(4-morpholinophenyl)-1H-pyrrolo[2,3-b]pyridin-4-yl)benzonitrile], for which the IC50 on IKKε was determined as 27.5 nM; on TBK1, 9.25 nM.

Consider `N#Cc1cc(-c2ncnc3[nH]c(-c4ccc(C5CCN(CC(F)F)CC5)cc4)nc23)ccc1OC1CCN(C(=O)CO)CC1` [Example 255, 5-(8-(4-(1-(2,2-difluoroethyl)piperidin-4-yl)phenyl)-9H-purin-6-yl)-2-((1-(2-hydroxyacetyl)piperidin-4-yl)oxy)benzonitrile], for which the figures for the IC50 on IKKε and on TBK1 were 3.48 nM and 1.53 nM, respectively.

For `N#Cc1cc(-c2ccnc3[nH]c(C#CCO)cc23)ccc1OC1CCOCC1` [Example 148, 5-(2-(3-hydroxyprop-1-yn-1-yl)-1H-pyrrolo[2,3-b]pyridin-4-yl)-2-((tetrahydro-2H-pyran-4-yl)oxy)benzonitrile], the half-maximal inhibitory concentration (IC50) on IKKε was 205 nM; at TBK1, 184 nM.

On to `C=C(C)c1ccc(-c2cc3c(-c4ccc(O[C@@H]5CCN(C(=O)CO)C5)c(C#N)c4)ccnc3[nH]2)cc1` [Example 150, (R)-2-((1-(2-hydroxyacetyl)pyrrolidin-3-yl)oxy)-5-(2-(4-(prop-1-en-2-yl)phenyl)-1H-pyrrolo[2,3-b]pyridin-4-yl)benzonitrile], for which the half-maximal inhibitory concentration (IC50) at IKKε came to 18.4 nM; at TBK1, 11.2 nM.

Turning to `COc1ccc(-c2cc3c(-c4ccc(OC5CCN(C(=O)CO)CC5)c(C#N)c4)ncnc3[nH]2)cn1` [Example 130, 2-((1-(2-hydroxyacetyl)piperidin-4-yl)oxy)-5-(6-(6-methoxypyridin-3-yl)-7H-pyrrolo[2,3-d]pyrimidin-4-yl)benzonitrile], the half-maximal inhibitory concentration (IC50) is 10.6 nM at IKKε and 5.43 nM on TBK1.

In the case of `COc1cc(-c2cc3c(-c4ccc(O[C@H]5CCNC[C@H]5F)c(C#N)c4)ncnc3[nH]2)ccc1N1CCN(C2COC2)CC1` [Example 144, 2-(((3R,4S)-3-fluoropiperidin-4-yl)oxy)-5-(6-(3-methoxy-4-(4-(oxetan-3-yl)piperazin-1-yl)phenyl)-7H-pyrrolo[2,3-d]pyrimidin-4-yl)benzonitrile], the IC50 at IKKε worked out at 64.4 nM; on TBK1, 6.17 nM.

Consider `N#Cc1cc(-c2ncnc3[nH]c(-c4ccc(N5CCOCC5)c(F)c4)nc23)ccc1OC1CCN(C(=O)CO)CC1` [Example 241, 5-(8-(3-fluoro-4-morpholinophenyl)-9H-purin-6-yl)-2-((1-(2-hydroxyacetyl)piperidin-4-yl)oxy)benzonitrile], for which the 50% inhibitory concentration (IC50) at IKKε came to 2.64 nM; on TBK1, 1.3 nM.

As for `CC(C)(C)OC(=O)N1CCC(Oc2ccc(-c3ncnc4[nH]c(-c5ccc(N6CCOCC6)cc5)nc34)cc2C#N)CC1` [Example 203, tert-butyl 4-(2-cyano-4-(8-(4-morpholinophenyl)-9H-purin-6-yl)phenoxy)piperidine-1-carboxylate], the IC50 on IKKε and at TBK1 was > 1000 nM each time.

For `CC(C)Oc1ccc(-c2ccnc3[nH]c(-c4ccc(N5CCOCC5)cc4)cc23)cc1C#N` [Example 71, 2-isopropoxy-5-(2-(4-morpholinophenyl)-1H-pyrrolo[2,3-b]pyridin-4-yl)benzonitrile], the IC50 on IKKε was determined as 358 nM; on TBK1, 59.3 nM.

Turning to `CC(=O)N1CCC(Oc2ccc(-c3ncnc4[nH]c(-c5ccc(N6CCOCC6)cc5)nc34)cc2C#N)CC1` [Example 249, 2-((1-acetylpiperidin-4-yl)oxy)-5-(8-(4-morpholinophenyl)-9H-purin-6-yl)benzonitrile], the values for the concentration for half-maximal inhibition (IC50) at IKKε and at TBK1 were 14.2 nM and 6.09 nM, respectively.

Turning to `N#Cc1cc(-c2ccnc3[nH]c(-c4ccc(N5CCOCC5)cc4)cc23)ccc1O[C@@H]1CCN(C(=O)CO)C1` [Example 15, (R)-2-((1-(2-hydroxyacetyl)pyrrolidin-3-yl)oxy)-5-(2-(4-morpholinophenyl)-1H-pyrrolo[2,3-b]pyridin-4-yl)benzonitrile], the IC50 on IKKε was found to be 2.45 nM; at TBK1 it was 1.34 nM.

On to `Cc1ncc(-c2cc3c(-c4ccc(OC5CCOCC5)c(C#N)c4)ncnc3[nH]2)s1` [Example 190, 5-(6-(2-methylthiazol-5-yl)-7H-pyrrolo[2,3-d]pyrimidin-4-yl)-2-((tetrahydro-2H-pyran-4-yl)oxy)benzonitrile], for which the IC50 at IKKε was 14.1 nM; on TBK1, 7.91 nM.

Consider `COc1cc(-c2cc3c(-c4ccc(OC5CCNCC5(F)F)c(C#N)c4)ncnc3[nH]2)ccc1N1CCN(C2COC2)CC1` (stereo not shown) [Example 140, 2-((3,3-difluoropiperidin-4-yl)oxy)-5-(6-(3-methoxy-4-(4-(oxetan-3-yl)piperazin-1-yl)phenyl)-7H-pyrrolo[2,3-d]pyrimidin-4-yl)benzonitrile], for which the IC50 was determined as 32.9 nM on IKKε and 3.55 nM on TBK1.

With `N#Cc1cc(-c2ccnc3[nH]c(-c4ccc(N5CCOCC5)cc4)cc23)ccc1N1CCCC1` [Example 49, 5-(2-(4-morpholinophenyl)-1H-pyrrolo[2,3-b]pyridin-4-yl)-2-(pyrrolidin-1-yl)benzonitrile], the IC50 is > 78 nM at IKKε and 7.05 nM at TBK1.

Consider `COc1cc(-c2cc3c(-c4ccc(O[C@H]5CCN(C(=O)CO)C[C@H]5F)c(C#N)c4)ncnc3[nH]2)ccc1N1CCN(C2COC2)CC1` [Example 145, 2-(((3R,4S)-3-fluoro-1-(2-hydroxyacetyl)piperidin-4-yl)oxy)-5-(6-(3-methoxy-4-(4-(oxetan-3-yl)piperazin-1-yl)phenyl)-7H-pyrrolo[2,3-d]pyrimidin-4-yl)benzonitrile], for which the IC50 on IKKε came to 0.481 nM; on TBK1, 1.05 nM.

On to `COC(=O)c1ccc(-c2cc3c(-c4ccc(OC5CCN(C(=O)CO)CC5)c(C#N)c4)ncnc3[nH]2)cc1` [Example 159, Methyl 4-(4-(3-cyano-4-((1-(2-hydroxyacetyl)piperidin-4-yl)oxy)phenyl)-7H-pyrrolo[2,3-d]pyrimidin-6-yl)benzoate], for which the IC50 came out at 5.09 nM on IKKε and 2.17 nM at TBK1.

For the molecule `Cc1cc(N2CCOCC2)ccc1-c1cc2c(-c3ccc(OC4CCOCC4)c(C#N)c3)ccnc2[nH]1` [Example 124, 5-(2-(2-methyl-4-morpholinophenyl)-1H-pyrrolo[2,3-b]pyridin-4-yl)-2-((tetrahydro-2H-pyran-4-yl)oxy)benzonitrile], the half-inhibitory concentration (IC50) is 18.6 nM on IKKε and 5.9 nM at TBK1.
